US10660900B2 (priority 2014, dated 2020)
Several values for one entry are separate records, joined by “and”; a condition that tells them apart may be missing. Equal values may be shown once. Read-outs that look alike come from different tables or passages of the source.

Tests used:
human OPRM [1] = target: T1, human OPRM (Homo sapiens, UniProt P35372); set-up: expressed in transfected cells; host or cells: CHO-K1 (cell line provided by Dr. Toll, Torrey Pines Institute); membranes prepared in house; settings: cited from earlier work
T1 sequence (P35372 whole entry): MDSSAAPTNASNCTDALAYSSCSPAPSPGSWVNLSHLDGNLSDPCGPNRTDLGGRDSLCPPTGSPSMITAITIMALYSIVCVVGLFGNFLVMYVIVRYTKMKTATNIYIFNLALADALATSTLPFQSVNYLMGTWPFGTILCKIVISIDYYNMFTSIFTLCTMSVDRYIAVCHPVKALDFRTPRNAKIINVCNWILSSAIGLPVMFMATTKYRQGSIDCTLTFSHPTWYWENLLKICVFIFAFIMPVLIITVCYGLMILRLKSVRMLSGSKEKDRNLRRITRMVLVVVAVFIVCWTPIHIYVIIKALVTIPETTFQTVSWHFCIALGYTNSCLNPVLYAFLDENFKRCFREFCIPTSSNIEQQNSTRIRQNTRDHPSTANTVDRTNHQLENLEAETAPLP

human OPRM [2] = target: T1, human OPRM; set-up: expressed in transfected cells; host or cells: CHO-K1 (cell line provided by Dr. Toll, Torrey Pines Institute); membranes prepared in house; settings: cited from earlier work; remark: listed apart in the source
human OPRK = experiment: biochemical; format: binding
OPRK [3] = target: T2, OPRK (Homo sapiens, UniProt P41145); experiment: biochemical; set-up: expressed in transfected cells; host or cells: CHO-K1; settings: for Emax: read-out: Efficacy (Emax)
T2 sequence (P41145 whole entry): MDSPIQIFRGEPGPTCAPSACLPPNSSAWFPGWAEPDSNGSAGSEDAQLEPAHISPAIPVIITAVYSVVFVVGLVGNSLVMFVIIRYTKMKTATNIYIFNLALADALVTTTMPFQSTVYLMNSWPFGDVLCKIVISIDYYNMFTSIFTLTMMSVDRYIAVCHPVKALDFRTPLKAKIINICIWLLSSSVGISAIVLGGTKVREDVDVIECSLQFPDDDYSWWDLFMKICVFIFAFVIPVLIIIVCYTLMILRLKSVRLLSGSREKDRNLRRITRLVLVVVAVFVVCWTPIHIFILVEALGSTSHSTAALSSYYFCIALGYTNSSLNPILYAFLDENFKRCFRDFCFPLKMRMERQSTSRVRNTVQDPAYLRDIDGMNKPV

calf OPRM = calf OPRM (Bos taurus, UniProt P79350); settings: cited from earlier work
Chain of calf OPRM (P79350 whole entry): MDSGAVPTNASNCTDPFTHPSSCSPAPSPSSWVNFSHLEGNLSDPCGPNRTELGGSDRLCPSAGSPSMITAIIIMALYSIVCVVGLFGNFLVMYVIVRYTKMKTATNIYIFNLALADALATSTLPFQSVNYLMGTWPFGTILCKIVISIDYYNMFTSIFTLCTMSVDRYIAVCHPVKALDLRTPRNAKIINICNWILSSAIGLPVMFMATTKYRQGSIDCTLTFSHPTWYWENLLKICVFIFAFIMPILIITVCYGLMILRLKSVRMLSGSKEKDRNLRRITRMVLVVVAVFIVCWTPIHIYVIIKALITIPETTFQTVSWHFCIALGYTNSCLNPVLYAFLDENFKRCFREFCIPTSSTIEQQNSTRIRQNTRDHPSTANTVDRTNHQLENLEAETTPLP

calf OPRK = calf OPRK (Bos taurus, UniProt Q2KIP6); settings: calf receptor; literature; cited from earlier work
Chain of calf OPRK (Q2KIP6 whole entry): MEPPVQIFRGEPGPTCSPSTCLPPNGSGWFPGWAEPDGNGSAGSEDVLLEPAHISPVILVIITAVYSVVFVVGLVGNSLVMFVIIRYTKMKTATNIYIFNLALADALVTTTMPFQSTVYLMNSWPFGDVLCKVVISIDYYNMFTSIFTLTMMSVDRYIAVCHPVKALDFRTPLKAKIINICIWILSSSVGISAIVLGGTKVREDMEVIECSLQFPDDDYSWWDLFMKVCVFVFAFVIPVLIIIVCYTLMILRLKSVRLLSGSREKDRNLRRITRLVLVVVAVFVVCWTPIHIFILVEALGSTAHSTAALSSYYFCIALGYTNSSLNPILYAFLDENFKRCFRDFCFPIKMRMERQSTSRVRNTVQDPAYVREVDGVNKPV

human OPRM [4] = target: T1, human OPRM; experiment: biochemical; set-up: expressed in transfected cells; host or cells: CHO-K1 (cell line provided by Dr. Toll, Torrey Pines Institute); membranes prepared in house; settings: for Emax: read-out: Efficacy (Emax)
human OPRM [5] = target: T1, human OPRM; experiment: biochemical; format: binding; set-up: expressed in transfected cells; host or cells: CHO-K1 (cell line provided by Dr. Toll, Torrey Pines Institute); membranes prepared in house; settings: Ki
OPRK [6] = target: T2, OPRK; experiment: biochemical; format: binding; set-up: expressed in transfected cells; host or cells: CHO-K1; settings: Ki
[7] = target: opioid receptor delta (OPRD) (Bos taurus, UniProt F1N083); settings: printed in the SEM column; literature; cited from earlier work
Chain of opioid receptor delta (OPRD) (F1N083 1-372): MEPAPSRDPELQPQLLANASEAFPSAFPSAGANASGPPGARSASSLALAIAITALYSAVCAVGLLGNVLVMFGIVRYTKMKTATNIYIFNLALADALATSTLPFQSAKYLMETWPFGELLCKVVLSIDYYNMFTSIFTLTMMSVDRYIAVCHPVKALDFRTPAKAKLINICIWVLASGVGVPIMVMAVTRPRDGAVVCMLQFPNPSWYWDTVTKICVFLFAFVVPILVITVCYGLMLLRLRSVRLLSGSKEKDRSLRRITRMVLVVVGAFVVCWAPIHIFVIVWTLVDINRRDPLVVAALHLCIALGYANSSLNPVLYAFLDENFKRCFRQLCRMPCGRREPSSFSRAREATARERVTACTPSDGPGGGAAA

OPRK [8] = target: T2, OPRK; experiment: cell-based; set-up: host or cells: CHO-K1
[9] = Single ascending oral dose pharmacokinetics of noribogaine in healthy volunteers (plasma and urine, LCMSMS); settings: for AUC0-216 / AUC0-∞ / Cmax / Tmax / t1/2: mean (SD), n = 6
human OPRM [10] = target: T1, human OPRM; format: cell-based; set-up: host or cells: CHO-K1
[11] = from literature (or literature/this work) values
[12] = 30 mg single oral noribogaine, plasma
[13] = 60 mg single oral noribogaine, plasma

In the case of `NC(N)=Nc1ccc2c3c([nH]c2c1)[C@@H]1Oc2c(O)ccc4c2[C@@]12CCN(CC1CC1)[C@H](C4)[C@]2(O)C3` [6′GNTI, 6′-guanidinonaltrindole], the EC50 (human OPRM [1]; activation, literature) is listed as greater than 1 µM, the Efficacy (human OPRM [1]; activation, literature) is listed as 0~ % and the Ki (human OPRM [2]) is listed as 0.082 µM. For the same compound, the pKi (human OPRM [2]) was 7.1 and the “ΔpKi = pKi(OPRK) − pKi(OPRM), OPRK Specificity” value (from here on “ΔpKi = pKi(OPRK) − pKi(OPRM)”) (human OPRK; [11]) was 1.84.

In the case of `COCCC1CC2CN3CCc4c([nH]c5ccccc45)C(C(=O)OC)(C2)C13` (stereo not shown) [18-MC, 18-methoxycoronaridine, reference compound], the EC50 (OPRK [3]) is reported as roughly 16 µM, the “Efficacy (inhibition)” value (OPRK [3]) is reported as −100% and the “e-coupling (pKi-pEC50)” value (OPRK [3]) is reported as 0.94~. For the same compound, the “e-coupling (pKi-pKe)” value (OPRK [3]) was 0.39, the “stimulation of [35S]GTPγS binding to OPRK” value (OPRK [3]) was “failed to stimulate” and the Ki (OPRK [3]; Ke) was 2.8 µM and 2.9 µM and 4.3 µM. For the same compound, the Emax (OPRK [3]) was less than 5%, the “reported selectivity at OPRM” value (calf OPRM; Glick, Maisonneuve et al. 2000) was 5 × and the pKi (calf OPRM; calf receptor, literature) was 6.0. For the same compound, the Ki (calf OPRK) was 5.1 µM, the pKi (calf OPRK) was 5.3 and the “stimulation of the OPRM G-protein pathway” value (human OPRM [4]) was “failed to stimulate the OPRM G-protein pathway”. The Emax (human OPRM [4]) was less than 5%, the Ki (human OPRM [5]) was 2.26 µM and 2.36 µM and the “ΔpKi = pKi(OPRK) − pKi(OPRM)” value (human OPRK; [11]) was −0.7. The “ΔpKi = pKi(OPRK) − pKi(OPRM)” value (human OPRK; from values of this work) was 0.1, the “affinity at human OPRK versus OPRM” value (human OPRK; in these assays) was “equi-affine to both human OPRK and OPRM” and the Ki (OPRK [6]; Table 9 summary column, value of this work) was 1.8 µM. The Ki (OPRK [6]; [3H]-U69,593) was 1.84 ± 0.12 µM.

In the case of `C[C@@H](NC(=O)[C@@H](N)Cc1ccc(O)cc1)C(=O)NCC(=O)N(C)[C@@H](Cc1ccccc1)C(=O)NCCO` [DAMGO, [D-Ala2, NMe-Phe4, Gly-ol5]-enkephalin], the “ΔpKi = pKi(OPRK) − pKi(OPRM)” value (human OPRK; [11]) is reported as less than −3.

For `CCC1CC2CC3c4[nH]c5ccc(OC)cc5c4CCN(C2)C13` (stereo not shown) [Ibogaine, ibogaine, reference compound], the Ki (calf OPRM; calf receptor, literature) is given as 11 µM, the pKi (calf OPRM; calf receptor, literature) is given as 5.0 and the “stimulation of the OPRM G-protein pathway” value (human OPRM [4]) is given as “failed to stimulate the OPRM G-protein pathway”. For the same compound, the Emax (human OPRM [4]) was -2.9%, the Ki (human OPRM [5]) was 6.92 ± 0.83 µM and the “Ki at OPRD” value [7] was “(OPRD − N.Q.)”.

For `C=C1CC[C@@]2(O)[C@H]3Cc4ccc(O)c5c4[C@@]2(CCN3CC2CC2)[C@H]1O5` [Nalmefene, nalmefene, reference compound], the “Efficacy (inhibition)” value (OPRK [3]) was −65%, the “e-coupling (pKi-pEC50)” value (OPRK [3]) was 0.92 and the “e-coupling (pKi-pKe)” value (OPRK [3]) was 0.23. For the same compound, the “own reduced signal level to which rival agonist signal is leveled down” value (OPRK [3]) was 30% and the Emax (OPRK [3]) was 35 ± 4.7%.

With `Oc1ccc2c3c1O[C@H]1c4[nH]c5c(c4C[C@@]4(O)[C@@H](C2)N(CC2CC2)CC[C@]314)C[C@@]1(O)[C@H]2Cc3ccc(O)c4c3[C@@]1(CCN2CC1CC1)[C@H]5O4` [NorBNI, nor-binaltorphimine, reference compound] the “e-coupling (pKi-pKe)” value (OPRK [8]; inhibitory component) was 0.27, the “Efficacy (inhibition)” value (OPRK [8]; inhibitory component against Dynorphin A) was −100% and the “Efficacy (inhibition)” value (OPRK [3]) was −100%. The “e-coupling (pKi-pKe)” value (OPRK [3]) was −0.1 and the “ΔpKi = pKi(OPRK) − pKi(OPRM)” value (human OPRK; [11]) was 2.0.

With `CC[C@H]1C[C@@H]2C[C@H]3c4[nH]c5ccc(OC6OC(C(=O)O)C(O)C(O)C6O)cc5c4CCN(C2)[C@@H]13` (stereo partly shown) [Noribogaine glucuronide, noribogaine glucuronide] the “proportion of noribogaine glucuronide Cmax and AUC relative to noribogaine” value ([9]; 30 mg and 60 mg dose groups) was 3-4%, the AUC0-216 [9, 12] was 25.7 (9.1) ng · hr/ml and the “AUC0-∞” value [9, 12] was 25.8 (9.3) ng · hr/ml. The Cmax [9, 12] was 1.8 (0.6) ng/ml, the Tmax [9, 12] was 3.0 (0.6) hr and the t1/2 [9, 12] was 20.6 (4.9) hr. The AUC0-216 [9, 13] was 65.0 (21.5) ng · hr/ml, the “AUC0-∞” value [9, 13] was 67.1 (21.9) ng · hr/ml and the Cmax [9, 13] was 4.1 (1.2) ng/ml. The Tmax [9, 13] was 3.8 (1.2) hr, the t1/2 [9, 13] was 23.1 (3.0) hr and the “time by which detected in all subjects” value ([9]; plasma, 30 mg and 60 mg noribogaine) was no more than 0.75 h. For the same compound, the Mean half-life ([9]; plasma, across dose groups) was 21 to 23 h and the “time of peak concentrations after oral noribogaine dosing” value ([9]; plasma, across dose groups) was 3 to 4 h.

For [Met]-Enkephalin, the Efficacy (human OPRM [1]) is listed as roughly 95%, the Efficacy (human OPRM [10]) is listed as 100% and the “ΔpKi = pKi(OPRK) − pKi(OPRM)” value (human OPRK) is listed as less than −3.
